Results on one molecule are retold here after patent US7304094B2, “Cyclohexyl sulphones” (Merck Sharp + Dohme, priority 2001, dated 2007).

Structures are written as SMILES.

A word on the melting point: it is the temperature of the solid-liquid transition.

On to `O=C(C[C@H]1CC[C@@](c2cc(F)ccc2F)(S(=O)(=O)c2ccc(Cl)cc2)CC1)c1ncn[nH]1` [Example 91], for which the melting point fell in the range of 147 to 154 °C.
